Results reported in patent publication US9290453B2 (Merck Sharp & Dohme Corp., priority 2010, dated 2016).

Target: T1, hCRTH2 (Homo sapiens, UniProt Q9Y5Y4)
T1 construct: expressed in transfected cells; host or cells: HEK (human embryonic kidney) cells expressing hCRTH2
T1 sequence (Q9Y5Y4 1-395): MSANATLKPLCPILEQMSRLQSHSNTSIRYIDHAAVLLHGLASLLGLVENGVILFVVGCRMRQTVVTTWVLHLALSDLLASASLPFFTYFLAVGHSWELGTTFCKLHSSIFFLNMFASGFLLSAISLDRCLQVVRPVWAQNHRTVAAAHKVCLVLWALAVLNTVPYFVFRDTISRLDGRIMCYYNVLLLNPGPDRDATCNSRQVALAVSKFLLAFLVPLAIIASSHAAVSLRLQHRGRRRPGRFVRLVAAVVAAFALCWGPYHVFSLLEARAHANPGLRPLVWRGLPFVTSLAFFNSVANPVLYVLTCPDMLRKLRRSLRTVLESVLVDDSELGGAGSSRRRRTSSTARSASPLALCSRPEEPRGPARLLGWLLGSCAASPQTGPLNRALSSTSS
Assay: Radioligand Binding Assay A ([3H]PGD2 filtration binding, HEK-hCRTH2 membranes)
Conditions: Table A, rated A-D
Description: Radioligand binding assays were performed at room temperature in 50 mM Tris-HCl pH 7.4, 1 mM EDTA containing 2 mM MnCl2 and 3.0 nM [^3H]PGD2 (New England Nuclear, Boston, Mass.) (171 Ci mmol^−1), in a final volume of 0.2 ml. Competing ligands were diluted in dimethylsulfoxide (Me2SO) that was kept constant at 1% (v/v) of the final incubation volume. The reaction was initiated by the addition of 8-20 μg of membrane protein prepared from a human embryonic kidney (HEK)-hCRTH2 cell line. Total and non-specific binding were determined in the absence and the presence of 10 μM PGD2, respectively. Under these conditions, specific binding (total minus non-specific) of the radioligand to the receptor reached equilibrium within 50 min and was stable up to 180 min. The reaction was routinely conducted for 60 min at room temperature and terminated by rapid filtration through prewetted (0.3% polyethyleneimine) 96-well printed Filtermate™ (Wallac) using a Tomtec® harvester (Hamden, Conn.). After washing with cold buffer, the filter was dried for 2 minutes in microwave, and Meltilex Scintillator sheet (Wallac) was melted on for 2 min. The radioactivity was measured with Betaplate model 1205 (Wallac).

| Ki [nM] | SMILES |
| --- | --- |
| 0.1 to 2 | O=C(O)CCCCc1nc2cc(C(=O)N3CC(c4ccccc4)C3)ccc2cc1-c1ccccc1 [Compound 3L, 3-phenyl-7-[(3-phenyl-1-azetidinyl)carbonyl]-2-quinolinepentanoic acid] |
| 2.1 to 20 | CN(Cc1ccc(C(F)(F)F)cc1)C(=O)c1ccc2nc(-c3ccc(F)cc3)c(CCCCC(=O)O)cc2c1 [Compound 5V, 2-(4-fluorophenyl)-6-[[methyl[[4-(trifluoromethyl)phenyl]methyl]amino]carbonyl]-3-quinolinepentanoic acid] |
| 2.1 to 20 | O=C(O)CCCCc1nc2cc(C(=O)N3CCC(c4ccccc4)CC3)ccc2cc1-c1ccccc1 [Compound 3E, 3-phenyl-7-[(4-phenyl-1-piperidinyl)carbonyl]-2-quinolinepentanoic acid] |
| 2.1 to 20 | O=C(O)CCCCc1cc2cc(C(=O)Nc3cc4ccccc4[nH]3)ccc2nc1-c1ccccc1 [Compound 1AB, 6-[(1H-indol-2-ylamino)carbonyl]-2-phenyl-3-quinolinepentanoic acid] |
| 0.1 to 2 | C[C@@H](NC(=O)c1ccc2cc(-c3ccccc3)c(CCCCC(=O)O)nc2c1)c1ccc(F)cc1 [Compound 4E, (R)-5-(7-(1-(4-fluorophenyl)ethylcarbamoyl)-3-phenylquinolin-2-yl)pentanoic acid] |
| 20.1 to 200 | C[C@H](NC(=O)c1cnc2nc(-c3ccc(F)cc3)c(CCCCC(=O)O)cc2c1)c1ccc(F)cc1 [Compound 6K, 2-(4-fluorophenyl)-6-[[[1(S)-(4-fluorophenyl)ethyl]amino]carbonyl]-1,8-naphthyridine-3-pentanoic acid] |
| 2.1 to 20 | C[C@@H](CNC(=O)c1ccc2nc(-c3ccc(F)cc3)c(CCCCC(=O)O)cc2c1)c1ccccc1 [Compound 5AB, (R)-5-(2-(4-fluorophenyl)-6-((2-phenylpropyl)carbamoyl)quinolin-3-yl)pentanoic acid] |
| 2.1 to 20 | N#Cc1ccc([C@@H](NC(=O)c2ccc3nc(-c4ccc(F)cc4)c(CCCCC(=O)O)cc3c2)C(F)(F)F)cc1 [Compound 5Q, 6-[[[1(R)-(4-cyanophenyl)-2,2,2-trifluoroethyl]amino]carbonyl]-2-(4-fluorophenyl)-3-quinolinepentanoic acid] |
| 20.1 to 200 | O=C(O)CCCCc1nc2cc(C(=O)N3CCC[C@@H](c4ccccc4)C3)ccc2cc1-c1ccccc1 [Compound 3J, 3-phenyl-7-[(3(S)-phenyl-1-piperidinyl)carbonyl]-2-quinolinepentanoic acid] |
| 2.1 to 20 | C[C@@H](NC(=O)c1ccc2nc(-c3ccc(F)cc3)c(CCCCC(=O)O)cc2c1)c1cc(Cl)cc(Cl)c1 [Compound 5X, 6-[[[1(R)-(3,5-dichlorophenyl)ethyl]amino]carbonyl]-2-(4-fluorophenyl)-3-quinolinepentanoic acid] |
| 2.1 to 20 | C[C@H](NC(=O)c1ccc2nc(-c3ccc(F)cc3)c(CCCCC(=O)O)cc2c1)c1cc(Cl)cc(Cl)c1 [Compound 5Y, 6-[[[1(S)-(3,5-dichlorophenyl)ethyl]amino]carbonyl]-2-(4-fluorophenyl)-3-quinolinepentanoic acid] |
| 2.1 to 20 | C[C@@H](NC(=O)c1ccc2nc(-c3ccc(F)cc3)c(CCCCC(=O)O)cc2c1)c1ccc(Cl)cc1 [Compound 5, 6-[[[1(R)-(4-chlorophenyl)ethyl]amino]carbonyl]-2-(4-fluorophenyl)-3-quinolinepentanoic acid] |
| 2.1 to 20 | O=C(O)CCCCc1cc2cc(C(=O)N[C@H]3CCc4ccc(F)cc43)ccc2nc1-c1ccc(F)cc1 [Compound 5L, 6-[[(6-fluoro-2,3-dihydro-1H-inden-1(S)-yl)amino]carbonyl]-2-(4-fluorophenyl)-3-quinolinepentanoic acid] |
| 2.1 to 20 | C[C@@H](NC(=O)c1ccc2nc(-c3ccc(F)cc3)c(CCCCC(=O)O)cc2c1)c1ccc(F)cc1 [Compound 5D, 2-(4-fluorophenyl)-6-[[[1(R)-(4-fluorophenyl)ethyl]amino]carbonyl]-3-quinolinepentanoic acid] |
| 201 to 700 | O=C(O)CCCCc1cc2cc(C(=O)NCCCN3CCCC3)ccc2nc1-c1ccccc1 [Compound 1Z, 2-phenyl-6-[[[3-(1-pyrrolidinyl)propyl]amino]carbonyl]-3-quinolinepentanoic acid] |
| 20.1 to 200 | O=C(O)CCCCc1cc2cc(C(=O)N[C@H]3CCCc4cc(Cl)ccc43)cnc2nc1-c1ccc(F)cc1 [Compound 6N, 6-[[(6-chloro-1,2,3,4-tetrahydro-1(S)-naphthalenyl)amino]carbonyl]-2-(4-fluorophenyl)-1,8-naphthyridine-3-pentanoic acid] |
| 2.1 to 20 | O=C(O)CCCCc1cc2cc(C(=O)N3CCC[C@@H](c4ccccc4)C3)ccc2nc1-c1ccccc1 [Compound 1K, 2-phenyl-6-[(3(S)-phenyl-1-piperidinyl)carbonyl]-3-quinolinepentanoic acid] |
| 2.1 to 20 | O=C(O)CCCCc1cc2cc(C(=O)N[C@@H]3CCCc4ccccc43)ccc2nc1-c1ccc(F)cc1 [Compound 5G, 2-(4-fluorophenyl)-6-[[(1,2,3,4-tetrahydro-1(R)-naphthalenyl)amino]carbonyl]-3-quinolinepentanoic acid] |
| 2.1 to 20 | Cc1ccc(CNC(=O)c2ccc3nc(-c4ccccc4)c(CCCCC(=O)O)cc3c2)cc1 [Compound 1E, 6-[[[(4-methylphenyl)methyl]amino]carbonyl]-2-phenyl-3-quinolinepentanoic acid] |
| 2.1 to 20 | O=C(O)CCCCc1cc2cc(C(=O)NCc3ccc(C(F)(F)F)nc3)ccc2nc1-c1ccccc1 [Compound 1V, 2-phenyl-6-[[[[6-(trifluoromethyl)-3-pyridinyl]methyl]amino]carbonyl]-3-quinolinepentanoic acid] |
| 2.1 to 20 | C[C@H](CNC(=O)c1ccc2nc(-c3ccc(F)cc3)c(CCCCC(=O)O)cc2c1)c1ccccc1 [Compound 5AC, (S)-5-(2-(4-fluorophenyl)-6-((2-phenylpropyl)carbamoyl)quinolin-3-yl)pentanoic acid] |
| 2.1 to 20 | C[C@H](NC(=O)c1ccc2nc(-c3ccccc3)c(CCCCC(=O)O)cc2c1)c1ccccc1 [Compound 1T, 2-phenyl-6-[[(l(S)-phenylethyl)amino]carbonyl]-3-quinolinepentanoic acid] |
| 2.1 to 20 | O=C(O)CCCCc1cc2cc(C(=O)N3CCC[C@H](c4ccccc4)C3)ccc2nc1-c1ccccc1 [Compound 1L, 2-phenyl-6-[(3(R)-phenyl-1-piperidinyl)carbonyl]-3-quinolinepentanoic acid] |
| 20.1 to 200 | O=C(O)CCCCc1cc2cc(C(=O)N[C@H]3CCCc4ccc(F)cc43)ccc2nc1-c1ccc(F)cc1 [Compound 5N, 2-(4-fluorophenyl)-6-[[(7-fluoro-1,2,3,4-tetrahydro-1(S)-naphthalenyl)amino]carbonyl]-3-quinolinepentanoic acid] |
| 2.1 to 20 | C[C@H](NC(=O)c1ccc2nc(-c3ccccc3)c(CCCCC(=O)O)cc2c1)c1ccc(Cl)cc1 [Compound 1AE, 6-[[[1(S)-(4-chlorophenyl)ethyl]amino]carbonyl]-2-phenyl-3-quinolinepentanoic acid] |
| 2.1 to 20 | O=C(O)CCCCc1cc2cc(C(=O)NCc3ccc(C(F)(F)F)cc3)ccc2nc1-c1ccccc1 [Compound 1F, 2-phenyl-6-[[[[4-(trifluoromethyl)phenyl]methyl]amino]carbonyl]-3-quinolinepentanoic acid] |

Same assay, conditions: values in text

| Ki [nM] | SMILES |
| --- | --- |
| 5.4 | C[C@@H](NC(=O)c1ccc2nc(-c3ccc(F)cc3)c(CCCCC(=O)O)cc2c1)c1cc(Cl)cc(Cl)c1 [Compound 5X, 6-[[[1(R)-(3,5-dichlorophenyl)ethyl]amino]carbonyl]-2-(4-fluorophenyl)-3-quinolinepentanoic acid] |
| 570 | O=C(O)CCCCc1cc2cc(C(=O)NCCCN3CCCC3)ccc2nc1-c1ccccc1 [Compound 1Z, 2-phenyl-6-[[[3-(1-pyrrolidinyl)propyl]amino]carbonyl]-3-quinolinepentanoic acid] |
| 2.6 | O=C(O)CCCCc1cc2cc(C(=O)N[C@@H]3CCCc4ccccc43)ccc2nc1-c1ccc(F)cc1 [Compound 5G, 2-(4-fluorophenyl)-6-[[(1,2,3,4-tetrahydro-1(R)-naphthalenyl)amino]carbonyl]-3-quinolinepentanoic acid] |
| 4.4 | Cc1ccc(CNC(=O)c2ccc3nc(-c4ccccc4)c(CCCCC(=O)O)cc3c2)cc1 [Compound 1E, 6-[[[(4-methylphenyl)methyl]amino]carbonyl]-2-phenyl-3-quinolinepentanoic acid] |
| 25.5 | O=C(O)CCCCc1cc2cc(C(=O)N[C@H]3CCCc4ccc(F)cc43)ccc2nc1-c1ccc(F)cc1 [Compound 5N, 2-(4-fluorophenyl)-6-[[(7-fluoro-1,2,3,4-tetrahydro-1(S)-naphthalenyl)amino]carbonyl]-3-quinolinepentanoic acid] |
